From PMC3375359 (Journal of Medicinal Chemistry, 2012)

Target: T1, human MOR (Homo sapiens, UniProt P35372)
Assay: not given
Assay type: binding
Conditions: not given

T1 sequence (P35372 whole entry): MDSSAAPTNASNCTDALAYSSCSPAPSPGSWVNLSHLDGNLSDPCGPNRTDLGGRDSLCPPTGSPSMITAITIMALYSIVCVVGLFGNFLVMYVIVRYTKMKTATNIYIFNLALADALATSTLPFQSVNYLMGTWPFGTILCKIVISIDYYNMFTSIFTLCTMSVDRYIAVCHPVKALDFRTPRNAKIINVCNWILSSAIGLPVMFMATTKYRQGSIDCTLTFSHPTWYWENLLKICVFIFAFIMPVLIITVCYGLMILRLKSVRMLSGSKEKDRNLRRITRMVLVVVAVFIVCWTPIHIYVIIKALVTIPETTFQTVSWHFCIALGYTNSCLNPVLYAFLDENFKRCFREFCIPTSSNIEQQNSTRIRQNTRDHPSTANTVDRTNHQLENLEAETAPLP

Row | Structure (SMILES) | Selectivity MOR/KOR/DOR
1 | COc1cccc(CNc2ccc3c(c2)[C@@]24CCCC[C@H]2[C@@H](C3)N(CC2CC2)CC4)c1 [Compound 3g, (−)-17-(cyclopropylmethyl)-N-(3-methoxybenzyl)-morphinan-3-amine] | 1/3/220
2 | Oc1ccccc1CNc1ccc2c(c1)[C@@]13CCCC[C@H]1[C@@H](C2)N(CC1CCC1)CC3 [Compound 4a, (−)-17-(cyclobutylmethyl)-N-(2-hydroxybenzyl)-morphinan-3-amine] | 1/1/65
3 | COc1ccccc1CNc1ccc2c(c1)[C@@]13CCCC[C@H]1[C@@H](C2)N(CC1CC1)CC3 [Compound 3f, (−)-17-(cyclopropylmethyl)-N-(2-methoxybenzyl)-morphinan-3-amine] | 1/1/130
4 | COc1cccc(CNc2ccc3c(c2)[C@@]24CCCC[C@H]2[C@@H](C3)N(CC2CCC2)CC4)c1 [Compound 3b, (−)-17-(cyclobutylmethyl)-N-(3-methoxybenzyl)-morphinan-3-amine] | 1/5/220
5 | Nc1ccc2c(c1)[C@@]13CCCC[C@H]1[C@@H](C2)N(CC1CC1)CC3 [Compound 2c] | 7/1/830
6 | COc1ccccc1CNc1ccc2c(c1)[C@@]13CCCC[C@H]1[C@@H](C2)N(CC1CCC1)CC3 [Compound 3a, (−)-17-(cyclobutylmethyl)-N-(2-methoxybenzyl)-morphinan-3-amine] | 1/1/28
7 | COc1ccccc1CN(C)c1ccc2c(c1)[C@@]13CCCC[C@H]1[C@@H](C2)N(CC1CCC1)CC3 [Compound 5a, (−)-17-(cyclobutylmethyl)-N-methyl-N-(2-methoxybenzyl)-morphinan-3-amine] | 1/1/14
8 | Clc1ccc(CNc2ccc3c(c2)[C@@]24CCCC[C@H]2[C@@H](C3)N(CC2CCC2)CC4)cc1 [Compound 3d, (−)-17-(cyclobutylmethyl)-N-(4-chlorobenzyl)-morphinan-3-amine] | 1/3/59
9 | Oc1ccccc1CNc1ccc2c(c1)[C@@]13CCCC[C@H]1[C@@H](C2)N(CC1CC1)CC3 [Compound 4d, (−)-17-(cyclopropylmethyl)-N-(2-hydroxybenzyl)morphinan-3-amine] | 10/1/150
10 | Oc1cccc(CNc2ccc3c(c2)[C@@]24CCCC[C@H]2[C@@H](C3)N(CC2CCC2)CC4)c1 [Compound 4b, (−)-17-(cyclobutylmethyl)-N-(3-hydroxybenzyl)-morphinan-3-amine] | 1/6/720
11 | COc1cccc(CN(C)c2ccc3c(c2)[C@@]24CCCC[C@H]2[C@@H](C3)N(CC2CCC2)CC4)c1 [Compound 5b] | 1/2/27

Same assay, conditions: Table 1; ratio of Ki values

Row | Structure (SMILES) | Selectivity MOR/KOR/DOR
12 | Oc1cccc(CNc2ccc3c(c2)[C@@]24CCCC[C@H]2[C@@H](C3)N(CC2CC2)CC4)c1 [Compound 4e, (−)-17-(cyclopropylmethyl)-N-(3-hydroxybenzyl)-morphinan-3-amine] | 1/2/260
13 | CN(Cc1ccc(Cl)cc1)c1ccc2c(c1)[C@@]13CCCC[C@H]1[C@@H](C2)N(CC1CCC1)CC3 [Compound 5d, (−)-17-(cyclobutylmethyl)-N-methyl-N-(4-chlorobenzyl)-morphinan-3-amine] | 1/1/28
14 | COc1ccc(CNc2ccc3c(c2)[C@@]24CCCC[C@H]2[C@@H](C3)N(CC2CC2)CC4)cc1 [Compound 3h, (−)-17-(cyclopropylmethyl)-N-(4-methoxybenzyl)-morphinan-3-amine] | 1/2/65
15 | c1cc2c(cc1CNc1ccc3c(c1)[C@@]14CCCC[C@H]1[C@@H](C3)N(CC1CCC1)CC4)OCO2 [Compound 3e, (−)-17-(cyclobutylmethyl)-N-(3,4-methylenedioxybenzyl)morphinan-3-amine] | 1/3/160
16 | Oc1ccc(CNc2ccc3c(c2)[C@@]24CCCC[C@H]2[C@@H](C3)N(CC2CCC2)CC4)cc1 [Compound 4c, (−)-17-(cyclobutylmethyl)-N-(4-hydroxybenzyl)morphinan-3-amine] | 1/7/340
17 | CN(Cc1ccc(O)cc1)c1ccc2c(c1)[C@@]13CCCC[C@H]1[C@@H](C2)N(CC1CCC1)CC3 [Compound 6c, (−)-17-(cyclobutylmethyl)-N-methyl-N-(4-hydroxybenzyl)-morphinan-3-amine] | 1/1/170
18 | O=[N+]([O-])c1cccc(CNc2ccc3c(c2)[C@@]24CCCC[C@H]2[C@@H](C3)N(CC2CCC2)CC4)c1 [Compound 3k, (−)-3-(3′-nitrobenzyl)amino-17-cyclobutylmethylmorphinan] | 1/3/350
19 | c1cc2c(cc1CNc1ccc3c(c1)[C@@]14CCCC[C@H]1[C@@H](C3)N(CC1CC1)CC4)OCO2 [Compound 3i, (−)-17-(cyclopropylmethyl)-N-(3,4-methylenedihydroxybenzyl)-morphinan-3-amine] | 1/3/120
20 | Oc1ccc(CNc2ccc3c(c2)[C@@]24CCCC[C@H]2[C@@H](C3)N(CC2CC2)CC4)cc1 [Compound 4f, (−)-17-(cyclopropylmethyl)-N-(4-hydroxybenzyl)-morphinan-3-amine] | 1/1/44
21 | CN(Cc1cccc(O)c1)c1ccc2c(c1)[C@@]13CCCC[C@H]1[C@@H](C2)N(CC1CCC1)CC3 [Compound 6b] | 1/1/10
22 | CN1CC[C@]23CCCC[C@H]2[C@H]1Cc1ccc(NCc2cccc(O)c2)cc13 [Compound 4g] | 1/24/1700
23 | COc1ccc(CN(C)c2ccc3c(c2)[C@@]24CCCC[C@H]2[C@@H](C3)N(CC2CCC2)CC4)cc1 [Compound 5c, (−)-17-(cyclobutylmethyl)-N-methyl-N-(4-methyloxybenzyl)-morphinan-3-amine] | 1/1/34
24 | COc1ccc(CNc2ccc3c(c2)[C@@]24CCCC[C@H]2[C@@H](C3)N(CC2CCC2)CC4)cc1 [Compound 3c, (−)-17-(cyclobutylmethyl)-N-(4-methoxybenzyl)-morphinan-3-amine] | 1/5/300

Same assay, conditions: from binding affinities

Row | Structure (SMILES) | selectivity MOR to DOR
25 | CN1CC[C@]23CCCC[C@H]2[C@H]1Cc1ccc(NCc2cccc(O)c2)cc13 [Compound 4g] | ~2000 fold

Target: human KOR (Homo sapiens, UniProt P41145)
Assay: not given
Conditions: from binding affinities

human KOR, sequence (P41145 whole entry): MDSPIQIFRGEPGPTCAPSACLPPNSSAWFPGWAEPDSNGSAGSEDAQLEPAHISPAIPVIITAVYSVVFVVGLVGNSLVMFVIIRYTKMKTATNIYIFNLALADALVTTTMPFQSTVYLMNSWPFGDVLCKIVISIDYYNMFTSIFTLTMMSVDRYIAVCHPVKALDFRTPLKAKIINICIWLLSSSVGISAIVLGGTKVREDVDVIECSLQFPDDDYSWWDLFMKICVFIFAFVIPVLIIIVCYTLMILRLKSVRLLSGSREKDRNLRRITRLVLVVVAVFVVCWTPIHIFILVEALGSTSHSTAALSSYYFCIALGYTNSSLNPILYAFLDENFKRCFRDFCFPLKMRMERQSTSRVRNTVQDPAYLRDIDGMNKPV

Row | Structure (SMILES) | selectivity KOR over the DORs
26 | Oc1cccc(CNc2ccc3c(c2)C[C@@H]2[C@@H]4CCCC[C@]34CCN2CC2CC2)c1 [Compound 17, 2-(3′-Hydroxybenzyl)amino-17-cyclopropylmethylmorphinan] | > 10,000 fold

Target: human μ opioid receptor (Homo sapiens, UniProt P35372)
Assay: [35S]GTPγS binding mediated by the mu opioid receptor
Assay type: biochemical
Conditions: [35S]GTPγS binding assay, in words

human μ opioid receptor, sequence (P35372 whole entry): as the sequence (P35372 whole entry) above

Row | Structure (SMILES) | functional activity at MOR (agonist character)
27 | CN1CC[C@]23CCCC[C@H]2[C@H]1Cc1ccc(NCc2cccc(O)c2)cc13 [Compound 4g] | full agonist
28 | CN1CC[C@]23c4c5ccc(NCc6cccc(O)c6)c4O[C@H]2[C@@H](O)C=C[C@H]3[C@H]1C5 [Compound 12b, 3-(3′-hydroxybenzyl)amino-7,8-didehydro-4,5-epoxy-17-methyl-(5α,6α)-morphinan-6-ol] | full agonists

Target: T1, human MOR
Assay: not given
Conditions: Table 1; ratio of Ki values; cited from earlier work

Row | Structure (SMILES) | Selectivity MOR/KOR/DOR
29 | c1ccc(CNc2ccc3c(c2)[C@@]24CCCC[C@H]2[C@@H](C3)N(CC2CC2)CC4)cc1 [Compound 8a, reference compound] | 1/1/112
30 | Nc1ccc2c(c1)[C@@]13CCCC[C@H]1[C@@H](C2)N(CC1CCC1)CC3 [Compound 2b] | 2/1/100
31 | c1ccc(CNc2ccc3c(c2)[C@@]24CCCC[C@H]2[C@@H](C3)N(CC2CCC2)CC4)cc1 [Compound 8d, reference compound] | 1/2/76
32 | CN1CC[C@]23CCCC[C@H]2[C@H]1Cc1ccc(N)cc13 [Compound 2a] | 1/14/190
